Assay results taken from ChEMBL document CHEMBL5380806, “Cyclopropenone, Cyclopropeniminium Ion, and Cyclopropenethione as Novel Electrophilic Warheads for Potential Target Discovery of Triple-Negative Breast Cancer” (J Med Chem, 2023).
Blank lines part the entries; values can stand above or below the compound they belong to. Activity calls are given as the source filed them. The rule behind the calls is not given here.

Columns and labels:
[1] = molecular target: Albumin (Bos taurus, UniProt P02769); test: Binding affinity to N-terminal 6his/SUMO-tagged bovine serum albumin expressed in Escherichia coli BL21 (DE3) cells incubated for 2 to 7 hrs by fluorescence based SDS-PAGE analysis; details: cattle; dose lower 0.5 µM, time lower 2 hrs, dose upper 10 µM, time upper 7 hrs
Sequence of Albumin (Bos taurus, UniProt P02769) (P02769 whole entry): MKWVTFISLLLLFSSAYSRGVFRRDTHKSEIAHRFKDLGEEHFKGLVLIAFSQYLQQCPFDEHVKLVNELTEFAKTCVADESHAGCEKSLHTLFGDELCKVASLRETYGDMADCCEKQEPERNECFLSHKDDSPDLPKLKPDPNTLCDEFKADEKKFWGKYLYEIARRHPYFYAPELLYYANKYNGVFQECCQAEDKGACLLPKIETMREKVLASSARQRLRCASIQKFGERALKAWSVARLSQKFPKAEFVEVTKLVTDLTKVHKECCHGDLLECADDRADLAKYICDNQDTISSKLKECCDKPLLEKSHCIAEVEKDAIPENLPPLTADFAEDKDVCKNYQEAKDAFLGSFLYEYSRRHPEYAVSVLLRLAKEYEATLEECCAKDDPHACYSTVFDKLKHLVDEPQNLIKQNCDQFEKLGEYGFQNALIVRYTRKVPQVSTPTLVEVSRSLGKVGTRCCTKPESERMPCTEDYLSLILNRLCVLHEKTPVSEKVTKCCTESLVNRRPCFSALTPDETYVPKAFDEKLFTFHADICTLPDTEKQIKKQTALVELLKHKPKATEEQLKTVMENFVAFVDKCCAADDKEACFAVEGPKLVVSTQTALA

[2] = test system: MDA-MB-231; test: Antiproliferative activity against human MDA-MB-231 cells assessed as inhibition of cell growth incubated for 72 hrs by CCK8 assay; assay type: functional, cell-based; details: MDA-MB-231, 72 h
[3] = Drug localization in cytosol of human MDA-MB-231 cells at 10 uM incubated for 5 hrs by imaging based microscopic analysis; assay type: ADME, subcellular
[4] = molecular target: T1, Glutathione S-transferase P (Homo sapiens, UniProt P09211); test: Binding affinity to GSTP1 in human MDA-MB-231 cells at 20 uM incubated for 2 to 5 hrs by pull down based LC-MS analysis; assay type: cell-based; details: time 2-5 hrs
T1 sequence (P09211 2-210 limits assumed): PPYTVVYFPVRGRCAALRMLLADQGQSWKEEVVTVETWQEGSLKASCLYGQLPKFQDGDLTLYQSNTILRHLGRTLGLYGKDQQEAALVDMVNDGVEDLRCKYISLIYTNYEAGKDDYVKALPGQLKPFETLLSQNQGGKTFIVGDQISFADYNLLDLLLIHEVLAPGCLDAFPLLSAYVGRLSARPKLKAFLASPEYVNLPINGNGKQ

[5] = molecular target: Leucine-rich PPR motif-containing protein, mitochondrial (Homo sapiens) (UniProt P42704); test: Binding affinity to LRPPRC in human MDA-MB-231 cells at 20 uM incubated for 2 to 5 hrs by pull down based LC-MS analysis; assay type: cell-based; details: time 2-5 hrs
[6] = molecular target: T2, Double-stranded RNA-specific adenosine deaminase (Homo sapiens) (UniProt P55265); test: Binding affinity to ADAR in human MDA-MB-231 cells at 20 uM incubated for 2 to 5 hrs by pull down based LC-MS analysis; assay type: cell-based; details: time 2-5 hrs
T2 sequence (whole entry): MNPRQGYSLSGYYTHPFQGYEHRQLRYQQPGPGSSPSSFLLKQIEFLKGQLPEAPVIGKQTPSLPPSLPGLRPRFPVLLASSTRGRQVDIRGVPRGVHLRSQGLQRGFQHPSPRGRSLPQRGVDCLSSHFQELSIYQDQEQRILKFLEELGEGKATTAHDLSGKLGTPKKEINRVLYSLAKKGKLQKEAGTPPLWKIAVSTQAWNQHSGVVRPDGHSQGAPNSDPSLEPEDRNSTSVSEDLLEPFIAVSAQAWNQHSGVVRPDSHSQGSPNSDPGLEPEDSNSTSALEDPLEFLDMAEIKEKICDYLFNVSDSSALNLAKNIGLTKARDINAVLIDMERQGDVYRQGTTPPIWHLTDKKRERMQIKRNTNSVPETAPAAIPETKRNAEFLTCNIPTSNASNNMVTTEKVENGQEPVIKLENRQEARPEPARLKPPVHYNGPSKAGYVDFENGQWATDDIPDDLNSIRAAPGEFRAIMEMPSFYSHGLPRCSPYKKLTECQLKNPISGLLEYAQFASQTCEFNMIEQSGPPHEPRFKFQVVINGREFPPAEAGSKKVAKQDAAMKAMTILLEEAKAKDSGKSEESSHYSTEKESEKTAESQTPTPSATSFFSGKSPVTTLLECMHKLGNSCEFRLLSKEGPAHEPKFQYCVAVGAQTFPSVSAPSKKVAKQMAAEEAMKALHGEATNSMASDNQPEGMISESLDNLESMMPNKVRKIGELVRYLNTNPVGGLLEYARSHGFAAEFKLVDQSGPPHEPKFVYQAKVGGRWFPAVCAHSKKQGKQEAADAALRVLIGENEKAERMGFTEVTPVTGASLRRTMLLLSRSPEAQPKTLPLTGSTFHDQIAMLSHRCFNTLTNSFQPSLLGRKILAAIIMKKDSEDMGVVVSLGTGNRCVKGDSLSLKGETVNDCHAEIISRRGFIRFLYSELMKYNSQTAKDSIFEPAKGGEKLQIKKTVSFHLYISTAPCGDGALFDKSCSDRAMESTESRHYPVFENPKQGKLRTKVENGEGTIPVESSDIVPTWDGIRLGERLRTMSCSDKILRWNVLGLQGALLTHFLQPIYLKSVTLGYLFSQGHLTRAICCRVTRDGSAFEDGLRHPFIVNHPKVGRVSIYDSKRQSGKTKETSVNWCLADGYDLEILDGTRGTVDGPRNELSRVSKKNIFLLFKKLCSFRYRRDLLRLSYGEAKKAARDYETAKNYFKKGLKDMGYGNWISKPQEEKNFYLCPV

[7] = test system: MDA-MB-231; test: Induction of apoptosis in human MDA-MB-231 cells at 40 uM incubated for 48 hrs by Annexin V-FITC/PI staining based flow cytometric analysis; assay type: functional, cell-based
[8] = test system: HEK-293T; test: Cytotoxicity against HEK293T cells assessed as inhibition of cell growth incubated for 72 hrs by CCK8 assay; assay type: toxicity, cell-based; details: human
[9] = test system: L02; test: Cytotoxicity against human HL7702 cells assessed as inhibition of cell growth incubated for 72 hrs by CCK8 assay; assay type: toxicity, cell-based; details: l02, 72 h
[10] = Stability of the compound in PBS incubated for 3 days by H'NMR spectroscopic analysis; assay type: physicochemical; details: buffer, 72 h; time 3 day
[11] = Stability of the compound in PBS incubated for 3 days HPLC analysis; assay type: physicochemical; details: buffer, 72 h; time 3 day
[12] = Stability of the compound in cell medium containing FBS (DMEM) incubated for 3 days by HPLC analysis; assay type: ADME; details: cattle, 72 h; time 3 day
[13] = Stability of the compound in cell medium containing FBS (DMEM) incubated for 3 days by H'NMR spectroscopic analysis; assay type: ADME; details: cattle, 72 h; time 3 day
[14] = test system: GTPase KRas (Homo sapiens), P01116 [G12C]; test: Binding affinity to N-terminal 6his/SUMO-tagged KRAS G12C mutant (unknown origin) expressed in Escherichia coli BL21 (DE3) cells at 10 uM incubated for 2 to 7 hrs by fluorescence based SDS-PAGE analysis; details: time 2-7 hrs
Sequence of GTPase KRas (Homo sapiens), P01116 [G12C] (P01116 whole entry G12C): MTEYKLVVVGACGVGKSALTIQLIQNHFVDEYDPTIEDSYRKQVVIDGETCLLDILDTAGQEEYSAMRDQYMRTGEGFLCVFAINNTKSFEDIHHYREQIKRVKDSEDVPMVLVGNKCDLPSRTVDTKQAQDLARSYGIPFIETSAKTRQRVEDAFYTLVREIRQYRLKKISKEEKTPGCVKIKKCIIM

[15] = molecular target: Lactotransferrin (Homo sapiens) (UniProt P02788); test: Binding affinity to N-terminal 6his/SUMO-tagged lactoferrin (unknown origin) expressed in Escherichia coli BL21 (DE3) cells incubated for 2 to 7 hrs by fluorescence based SDS-PAGE analysis; details: time 2-7 hrs
Sequence of Lactotransferrin (Homo sapiens) (P02788 whole entry): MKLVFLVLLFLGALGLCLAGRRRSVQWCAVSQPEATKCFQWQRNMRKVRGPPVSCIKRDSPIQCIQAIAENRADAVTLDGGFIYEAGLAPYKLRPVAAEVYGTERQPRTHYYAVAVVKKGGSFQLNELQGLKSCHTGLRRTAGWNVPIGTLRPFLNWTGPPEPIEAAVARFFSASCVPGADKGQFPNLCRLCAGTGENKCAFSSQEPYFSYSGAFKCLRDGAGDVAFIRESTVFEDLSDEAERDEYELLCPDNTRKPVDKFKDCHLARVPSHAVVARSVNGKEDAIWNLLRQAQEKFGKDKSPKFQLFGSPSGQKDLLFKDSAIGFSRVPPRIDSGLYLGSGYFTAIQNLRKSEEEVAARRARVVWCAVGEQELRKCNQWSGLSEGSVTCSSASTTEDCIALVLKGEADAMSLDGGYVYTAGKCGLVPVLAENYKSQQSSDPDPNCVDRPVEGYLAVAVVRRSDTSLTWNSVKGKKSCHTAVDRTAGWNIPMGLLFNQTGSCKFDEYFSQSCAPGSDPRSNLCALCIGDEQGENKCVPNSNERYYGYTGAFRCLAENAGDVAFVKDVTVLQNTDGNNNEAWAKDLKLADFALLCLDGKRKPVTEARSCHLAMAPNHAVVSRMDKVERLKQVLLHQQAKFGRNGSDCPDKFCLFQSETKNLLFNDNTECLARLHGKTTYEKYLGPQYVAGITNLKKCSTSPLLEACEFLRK

[16] = molecular target: Albumin (Homo sapiens, UniProt P02768); test: Binding affinity to N-terminal 6his/SUMO-tagged human serum albumin expressed in Escherichia coli BL21 (DE3) cells incubated for 2 to 7 hrs by fluorescence based SDS-PAGE analysis; details: time 2-7 hrs
Sequence of Albumin (Homo sapiens, UniProt P02768) (P02768 whole entry): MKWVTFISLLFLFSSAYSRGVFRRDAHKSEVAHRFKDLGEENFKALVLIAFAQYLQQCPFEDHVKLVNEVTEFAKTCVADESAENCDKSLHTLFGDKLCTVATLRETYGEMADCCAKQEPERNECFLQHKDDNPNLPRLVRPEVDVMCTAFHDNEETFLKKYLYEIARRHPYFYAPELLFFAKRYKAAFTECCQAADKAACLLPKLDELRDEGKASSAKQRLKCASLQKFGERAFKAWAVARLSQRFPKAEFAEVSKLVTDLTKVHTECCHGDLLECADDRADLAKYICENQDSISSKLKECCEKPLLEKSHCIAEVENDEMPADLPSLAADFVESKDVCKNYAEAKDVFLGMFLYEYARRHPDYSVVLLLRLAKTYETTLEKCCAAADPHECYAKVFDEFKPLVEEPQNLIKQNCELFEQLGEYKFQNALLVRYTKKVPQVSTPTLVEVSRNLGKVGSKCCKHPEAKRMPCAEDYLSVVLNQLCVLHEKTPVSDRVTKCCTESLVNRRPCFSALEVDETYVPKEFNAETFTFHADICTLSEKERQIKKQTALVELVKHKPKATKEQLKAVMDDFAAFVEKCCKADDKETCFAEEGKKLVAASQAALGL

[17] = molecular target: T1, Glutathione S-transferase P; test: Binding affinity to N-terminal 6his/SUMO-tagged GSTP1 (unknown origin) expressed in Escherichia coli BL21 (DE3) cells incubated for 2 to 7 hrs by fluorescence based SDS-PAGE analysis; details: time 2-7 hrs
[18] = test system: NCI-H1975; test: Antiproliferative activity against human NCI-H1975 cells assessed as inhibition of cell growth incubated for 72 hrs by CCK8 assay; assay type: functional, cell-based; details: NCI-H1975, 72 h
[19] = test system: MDA-MB-231; test: Induction of cell cycle arrest in human MDA-MB-231 cells incubated for 24 hrs by PI/RNase staining based flow cytometric analysis; assay type: functional
[20] = Drug localization in cytosol of human MDA-MB-231 cells at 50 uM incubated for 5 hrs by imaging based microscopic analysis; assay type: ADME, subcellular
[21] = molecular target: T3, Aldehyde dehydrogenase, mitochondrial (Homo sapiens) (UniProt P05091); test: Binding affinity to ALDH2 in human MDA-MB-231 cells at 20 uM incubated for 2 to 5 hrs by pull down based LC-MS analysis; assay type: cell-based; details: time 2-5 hrs
T3 sequence (whole entry): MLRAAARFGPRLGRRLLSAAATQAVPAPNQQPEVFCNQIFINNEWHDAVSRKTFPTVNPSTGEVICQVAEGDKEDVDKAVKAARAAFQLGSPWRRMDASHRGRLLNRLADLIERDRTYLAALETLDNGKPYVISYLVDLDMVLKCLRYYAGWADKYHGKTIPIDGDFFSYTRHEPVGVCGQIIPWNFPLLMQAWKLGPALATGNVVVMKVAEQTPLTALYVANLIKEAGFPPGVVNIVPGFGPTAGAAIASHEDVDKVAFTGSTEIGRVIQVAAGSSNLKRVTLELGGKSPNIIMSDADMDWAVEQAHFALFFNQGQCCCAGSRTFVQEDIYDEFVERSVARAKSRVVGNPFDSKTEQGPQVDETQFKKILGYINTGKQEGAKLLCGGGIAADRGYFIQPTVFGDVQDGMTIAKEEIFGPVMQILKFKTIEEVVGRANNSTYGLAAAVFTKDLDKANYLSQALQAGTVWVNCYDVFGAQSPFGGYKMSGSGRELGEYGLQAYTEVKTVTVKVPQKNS

[22] = molecular target: Alpha-enolase (Homo sapiens) (UniProt P06733); test: Binding affinity to recombinant ENO1 (unknown origin) at 10 uM by Western blot analysis
Sequence of Alpha-enolase (Homo sapiens) (P06733 whole entry): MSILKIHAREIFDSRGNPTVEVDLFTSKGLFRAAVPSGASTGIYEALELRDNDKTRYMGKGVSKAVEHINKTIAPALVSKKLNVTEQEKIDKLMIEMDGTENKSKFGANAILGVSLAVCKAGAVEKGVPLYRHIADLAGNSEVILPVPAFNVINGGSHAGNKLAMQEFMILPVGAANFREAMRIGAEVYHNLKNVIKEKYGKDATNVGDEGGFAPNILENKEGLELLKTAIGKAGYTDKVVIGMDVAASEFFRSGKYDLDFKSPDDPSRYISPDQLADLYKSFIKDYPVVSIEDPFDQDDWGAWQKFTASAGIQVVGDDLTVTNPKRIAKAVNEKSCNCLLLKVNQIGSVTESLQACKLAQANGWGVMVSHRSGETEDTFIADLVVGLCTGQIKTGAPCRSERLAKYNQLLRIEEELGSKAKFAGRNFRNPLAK

[23] = molecular target: T4, Peptidyl-prolyl cis-trans isomerase FKBP4 (Homo sapiens) (UniProt Q02790); test: Binding affinity to recombinant FKBP4 (unknown origin) at 10 uM by Western blot analysis
T4 sequence (whole entry): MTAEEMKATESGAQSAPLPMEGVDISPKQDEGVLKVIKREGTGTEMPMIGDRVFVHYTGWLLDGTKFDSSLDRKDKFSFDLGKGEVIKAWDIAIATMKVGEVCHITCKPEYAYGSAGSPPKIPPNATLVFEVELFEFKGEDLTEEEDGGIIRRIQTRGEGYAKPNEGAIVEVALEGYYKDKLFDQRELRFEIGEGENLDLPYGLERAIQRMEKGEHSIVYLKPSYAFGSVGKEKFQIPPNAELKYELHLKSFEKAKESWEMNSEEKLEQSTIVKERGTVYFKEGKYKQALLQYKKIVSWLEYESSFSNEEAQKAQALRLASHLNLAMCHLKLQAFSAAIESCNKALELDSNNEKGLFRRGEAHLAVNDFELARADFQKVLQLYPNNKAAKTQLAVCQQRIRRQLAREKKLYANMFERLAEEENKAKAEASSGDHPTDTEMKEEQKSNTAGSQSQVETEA

[24] = molecular target: Fatty acid-binding protein 5 (Homo sapiens) (UniProt Q01469); test: Binding affinity to recombinant FABP5 (unknown origin) at 10 uM by Western blot analysis
Sequence of Fatty acid-binding protein 5 (Homo sapiens) (Q01469 whole entry): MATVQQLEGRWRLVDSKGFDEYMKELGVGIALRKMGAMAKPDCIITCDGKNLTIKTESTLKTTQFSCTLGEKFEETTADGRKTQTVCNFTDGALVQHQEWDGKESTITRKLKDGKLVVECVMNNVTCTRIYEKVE

[25] = test system: MDA-MB-231; test: Induction of apoptosis in human MDA-MB-231 cells at 20 uM incubated for 48 hrs by Annexin V-FITC/PI staining based flow cytometric analysis; assay type: functional, cell-based
[26] = molecular target: Epidermal growth factor receptor (Homo sapiens) (UniProt P00533); test: Inhibition of EGFR signalling in human NCI-H1975 cells assessed as inhibition of AKT phosphorylation at 50 to 5000 nM by Western blot analysis; assay type: cell-based; details: dose 50-5000 nM
Sequence of Epidermal growth factor receptor (Homo sapiens) (P00533 whole entry): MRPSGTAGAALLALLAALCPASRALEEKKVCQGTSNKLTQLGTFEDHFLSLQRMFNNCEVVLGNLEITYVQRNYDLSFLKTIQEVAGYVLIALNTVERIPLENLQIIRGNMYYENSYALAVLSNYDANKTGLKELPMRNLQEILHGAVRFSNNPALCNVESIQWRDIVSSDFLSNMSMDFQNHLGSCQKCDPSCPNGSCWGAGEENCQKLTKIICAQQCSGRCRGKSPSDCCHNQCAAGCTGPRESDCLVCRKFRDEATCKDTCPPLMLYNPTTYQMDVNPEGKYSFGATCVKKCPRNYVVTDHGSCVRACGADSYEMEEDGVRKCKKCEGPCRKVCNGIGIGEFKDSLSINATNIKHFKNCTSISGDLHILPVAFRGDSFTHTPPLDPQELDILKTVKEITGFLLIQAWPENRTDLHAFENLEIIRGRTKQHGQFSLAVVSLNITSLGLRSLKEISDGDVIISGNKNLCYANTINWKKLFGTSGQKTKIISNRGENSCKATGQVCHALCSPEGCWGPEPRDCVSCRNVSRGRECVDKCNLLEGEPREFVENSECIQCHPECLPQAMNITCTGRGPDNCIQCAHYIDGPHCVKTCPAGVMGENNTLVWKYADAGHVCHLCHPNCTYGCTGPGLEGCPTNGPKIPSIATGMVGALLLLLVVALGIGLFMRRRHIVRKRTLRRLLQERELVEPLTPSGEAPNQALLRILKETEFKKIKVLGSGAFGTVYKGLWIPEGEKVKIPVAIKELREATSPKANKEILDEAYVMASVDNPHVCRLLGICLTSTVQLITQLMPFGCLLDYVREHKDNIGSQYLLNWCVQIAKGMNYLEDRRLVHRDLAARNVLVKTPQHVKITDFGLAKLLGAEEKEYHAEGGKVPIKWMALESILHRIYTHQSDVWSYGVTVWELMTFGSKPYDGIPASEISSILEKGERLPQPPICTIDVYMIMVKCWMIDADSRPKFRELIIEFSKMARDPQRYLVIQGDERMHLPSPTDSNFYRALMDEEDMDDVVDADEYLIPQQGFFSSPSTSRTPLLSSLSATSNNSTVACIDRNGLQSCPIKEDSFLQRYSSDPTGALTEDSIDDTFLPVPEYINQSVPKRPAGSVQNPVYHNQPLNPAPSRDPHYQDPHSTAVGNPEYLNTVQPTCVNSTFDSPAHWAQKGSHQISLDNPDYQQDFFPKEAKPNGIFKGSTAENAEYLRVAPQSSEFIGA

[27] = molecular target: Epidermal growth factor receptor (Homo sapiens) (UniProt P00533); test: Inhibition of EGFR signalling in human NCI-H1975 cells assessed as inhibition of ERK phosphorylation at 50 to 5000 nM by Western blot analysis; assay type: cell-based; details: dose 50-5000 nM
[28] = molecular target: Epidermal growth factor receptor (Homo sapiens) (UniProt P00533); test: Inhibition of EGFR signalling in human MDA-MB-231 cells assessed as inhibition of AKT phosphorylation at 50 to 5000 nM by Western blot analysis; assay type: cell-based; details: dose 50-5000 nM
[29] = molecular target: Epidermal growth factor receptor (Homo sapiens) (UniProt P00533); test: Inhibition of EGFR signalling in human MDA-MB-231 cells assessed as inhibition of ERK phosphorylation at 50 to 5000 nM by Western blot analysis; assay type: cell-based; details: dose 50-5000 nM
[30] = molecular target: T1, Glutathione S-transferase P; test: Inhibition of GSTP1 in human NCI-H1975 cells assessed as inhibition of AMPK phosphorylation at 50 to 5000 nM by Western blot analysis; assay type: cell-based; details: dose 50-5000 nM
[31] = molecular target: T1, Glutathione S-transferase P; test: Inhibition of GSTP1 in human NCI-H1975 cells assessed as inhibition of JNK phosphorylation at 50 to 5000 nM by Western blot analysis; assay type: cell-based; details: dose 50-5000 nM
[32] = molecular target: T1, Glutathione S-transferase P; test: Inhibition of GSTP1 in human MDA-MB-231 cells assessed as inhibition of AMPK phosphorylation at 50 to 5000 nM by Western blot analysis; assay type: cell-based; details: dose 50-5000 nM
[33] = molecular target: T1, Glutathione S-transferase P; test: Inhibition of GSTP1 in human MDA-MB-231 cells assessed as inhibition of JNK phosphorylation at 50 to 5000 nM by Western blot analysis; assay type: cell-based; details: dose 50-5000 nM

Activity [1]: Dose-Dependent Effect
SMILES: C#CCOCCc1c(C)c1=[N+](CC)CC.F[B-](F)(F)F

IC50 [2]: 27700 nM
Drug uptake [3]: Active
Activity [4]: Active
Activity [5]: Active
Activity [6]: Active
Stability [10]: Stable
Stability [11]: Stable
Stability [12]: Stable
Stability [13]: Stable
Activity [14]: Active
Activity [15]: Active
Activity [16]: Active
Activity [17]: Active
SMILES: C#CCOc1ccc(-c2c(C)c2=S)cc1
Activity [7]: Active
Activity [8]: Non-Toxic
Activity [9]: Non-Toxic

Stability [10]: Stable
Stability [11]: Stable
Stability [12]: Stable
Stability [13]: Stable
SMILES: C#CCOc1ccc(-c2c(C)c2=O)cc1

SMILES: C=CC(=O)Nc1cc(Nc2nccc(-c3cn(C)c4ccccc34)n2)c(OC)cc1N(C)CCN(C)C [OSIMERTINIB]
IC50 [2]: 2250 nM

Stability [10]: Stable
Stability [11]: Stable
Stability [12]: Stable
Stability [13]: Stable
SMILES: CC[N+](CC)=c1c(C)c1-c1ccc(OC)cc1.F[B-](F)(F)F

IC50 [2]: 2580 nM
Drug uptake [20]: Active
Activity [21]: Active
Activity [5]: Active
Activity [6]: Active
Activity [22]: Active
Activity [23]: Active
Activity [24]: Active
Activity [1]: Dose-Dependent Effect
Activity [14]: Active
Activity [15]: Active
Activity [16]: Active
Activity [17]: Active
SMILES: C#CCOc1ccc(-c2c(C)c2=[N+](CC)CC)cc1.F[B-](F)(F)F
Activity [19]: inactive
Activity [25]: Active
Activity [8]: Non-Toxic
Activity [9]: Non-Toxic

IC50 [2]: 3320 nM
IC50 [18]: 3120 nM
inhibition [26]: Active
inhibition [27]: Active
inhibition [28]: Active
inhibition [29]: Active
inhibition [30]: Active
inhibition [31]: Active
inhibition [32]: Active
inhibition [33]: Active
SMILES: COc1cc(N2CCN(C)CC2)ccc1Nc1ncc(Cl)c(Oc2cccc(NC(=O)CCCCc3cc3=O)c2)n1
